# Results published in PubChem BioAssay AID434987 (Southern Research Specialized Biocontainment Screening …, 2010).
# Calls of active or inactive are those of the source. No rule for the calls is given here.
# System: M. tuberculosis H37Rv growth inhibition with meropenem
# Assay: dose response, H37Rv, with and without meropenem (AID 434987);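 also: growth over 7 days at 37 °C before Alamar Blue read on day 9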
# [1] = M. tuberculosis H37Rv growth inhibition, measured here: IC50 without meropenem
# [2] = M. tuberculosis H37Rv growth inhibition, measured here: IC90 without meropenem
# [3] = measured here: IC90 with meropenem
Structure (SMILES),IC50,IC50 [1],IC90 [2],IC90 [3]
O=C(N[C@@H](Cc1ccccc1)C(=O)CCl)OCc1ccccc1,8.88 µM (inactive),17.3 µM,41.9 µM,46.9 µM
CCOC(=O)/C(=N\Nc1ccccc1)c1csc(Nc2ccc(C)cc2)n1,> 100 µM (inactive),> 100 µM,> 100 µM,> 100 µM
CC1(c2ccc([N+](=O)[O-])cc2)NC(=O)N(CC(=O)c2ccc3c(c2)OCO3)C1=O (configuration not stated),> 100 µM (inactive),> 100 µM,> 100 µM,> 100 µM
O=C(CSc1nnc(SCc2ccccc2)s1)N/N=C/c1ccc(Cl)cc1Cl,72.2 µM (inactive),> 100 µM,> 100 µM,> 100 µM
COc1ccc(Cn2c(C)nc3c(c(=O)c4ccccc4n3C)c2=O)cc1,> 100 µM (inactive),> 100 µM,> 100 µM,> 100 µM
COc1ccc(C(=O)Nc2ccc(C(=O)OCC(=O)c3ccccc3)cc2)cc1,> 100 µM (inactive),> 100 µM,> 100 µM,> 100 µM
CCOc1cc(C(=O)N2CCC(CC3CC(c4ccccc4)=NO3)(C(=O)NCc3ccc(OC)cc3)CC2)cc(OCC)c1OCC (configuration not stated),> 100 µM (inactive),> 100 µM,> 100 µM,> 100 µM
CCOC(=O)c1cnc2cc(-c3ccc(C(C)(C)C)cc3)nn2c1N,0.899 µM,12.1 µM,> 100 µM,5.74 µM
C=CCc1cc(Cl)ccc1OCCCNC(C)CC (configuration not stated),38.2 µM (inactive),49.2 µM,55.1 µM,51.3 µM
Cc1cc(=S)nc(-c2ccccn2)[nH]1,13.1 µM,48.3 µM,50.4 µM,19.7 µM
Clc1ccc(-c2csc3ncnc(N4CCc5ccccc5C4)c23)cc1,95.4 µM (inactive),> 100 µM,> 100 µM,> 100 µM
CCOC(=O)c1sc(Nc2nc3c(OC)cccc3s2)cc1C,98.6 µM (inactive),89 µM,> 100 µM,> 100 µM
CN(C)C(=O)c1ccc(-n2nc(C(F)(F)F)c3c2CCCC3)cc1,> 100 µM (inactive),> 100 µM,> 100 µM,> 100 µM
O=C(N/N=C/c1cc([N+](=O)[O-])ccc1O)C1CC1,4.14 µM,58.9 µM,> 100 µM,> 100 µM
COc1cccc(CNC(=O)C(Cc2ccccc2)n2cccc2)c1 (configuration not stated),50.7 µM (inactive),67.4 µM,> 100 µM,> 100 µM
COc1ccc(NC(=O)CCn2c(=O)c3cccn3c3ccccc32)cc1,> 100 µM (inactive),> 100 µM,> 100 µM,> 100 µM
O=[N+]([O-])c1cc(C(F)(F)F)ccc1NCCc1c[nH]c2ccc(O)cc12,33.9 µM (inactive),52.8 µM,> 100 µM,72.9 µM
CCCCN=C1CC(C)(C)CC(=O)/C1=C(/O)CCC,18.9 µM (inactive),42.1 µM,> 100 µM,28.7 µM
CCCN1C(=O)S/C(=C/c2ccc(N3CCOCC3)o2)C1=O,< 0.2 µM,34.9 µM,> 100 µM,> 100 µM
O=c1[nH]c(CN(CCO)CCO)nc2c1C1(CCCCC1)Cc1ccccc1-2,19.6 µM,> 100 µM,> 100 µM,> 100 µM
Cc1ccc(OCC(=O)Nc2ccc(-c3nc4ncccc4o3)cc2)c(C)c1,> 100 µM (inactive),> 100 µM,> 100 µM,> 100 µM
Cn1c(/C=C/c2ccc(Cl)cc2)c([N+](=O)[O-])c(=O)n(C)c1=O,> 100 µM (inactive),> 100 µM,> 100 µM,> 100 µM
O=C1CC(Nc2ccc(N3CCOCC3)cc2)C(=O)N1C1CCCCC1 (configuration not stated),> 100 µM (inactive),> 100 µM,> 100 µM,> 100 µM
